Measurements published in US12239711B2, “Cereblon ligands and bifunctional compounds comprising the same” (Arvinas Operations, Inc., priority 2014, dated 2025).

Key:
[1] = target: T1, Estrogen Receptor-Alpha (ERα) (Homo sapiens, UniProt P03372); experiment: Estrogen Receptor-Alpha (ERα) degradation assay in MCF-7 cells (western blot / In-Cell Western); type: cell-based; conditions: for Dmax: MCF7, read-out: ER Dmax; for DC50: read-out: ER DC50
T1 construct: endogenous in cells; host or cells: MCF-7 (MCF7) cells
T1 sequence (P03372 1-595): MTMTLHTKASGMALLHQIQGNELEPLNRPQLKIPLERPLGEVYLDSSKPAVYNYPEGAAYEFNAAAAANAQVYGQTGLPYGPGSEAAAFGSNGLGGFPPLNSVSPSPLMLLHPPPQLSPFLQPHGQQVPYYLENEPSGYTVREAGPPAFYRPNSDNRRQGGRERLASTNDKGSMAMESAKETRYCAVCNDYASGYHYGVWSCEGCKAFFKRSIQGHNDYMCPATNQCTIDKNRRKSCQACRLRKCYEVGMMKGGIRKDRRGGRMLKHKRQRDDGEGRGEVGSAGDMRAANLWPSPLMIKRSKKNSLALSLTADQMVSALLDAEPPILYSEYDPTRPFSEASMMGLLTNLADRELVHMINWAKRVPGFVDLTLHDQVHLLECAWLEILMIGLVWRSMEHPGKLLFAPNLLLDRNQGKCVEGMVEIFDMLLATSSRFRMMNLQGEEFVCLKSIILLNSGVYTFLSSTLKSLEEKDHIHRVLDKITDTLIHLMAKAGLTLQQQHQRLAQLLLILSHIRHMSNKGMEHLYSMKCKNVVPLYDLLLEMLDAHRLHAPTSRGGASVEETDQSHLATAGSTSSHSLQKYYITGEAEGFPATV
Description: 2. Estrogen Receptor-Alpha (ERα) Degradation Assay in MCF-7 Cells Using Western Blot Method for Table 5.
The exemplary novel ERα degraders were assessed for their activity in degrading ERα in MCF-7 cells via western blot. The assay was carried out in the presence of 10% FBS or high percentage of human or mouse serum. Protocols of the western blot assay are described below.
MCF7 cells were grown in DMEM/F12 with 10% FBS and seeded at 24,000 cells per well in 100 μl into 96-well clear tissue culture plates. The following day, the cells were treated with PROTACs in a […] concentration curve with 100 nM being the top concentration and serial dilutions to make the other concentrations (30 nM, 10 nM, 3 nM, 1 nM, and 0.3 nM). At all concentrations, 0.01% DMSO is the final concentration in the well. The following day, the plates are aspirated, washed with 50 μl of cold PBS. The cells are lysed with 50 μl/well 4° C. Cell Lysis Buffer (Catalog #9803; Cell Signaling Technology, Danvers, MA) (20 mM Tris-HCL (pH 7.5), 150 mM NaCl, 1 mM Na2EDTA, 1 mM EGTA, 1% Triton, 2.5 mM sodium pyrophosphate, 1 mM B-glycerophosphate, 1 mM sodium vanadate, 1 ug/ml leupeptin). Lysates were clarified at 16,000×g for 10 minutes, and 2 μg of protein was subjected to SDS-PAGE analysis and followed by immunoblotting according to standard protocols. The antibodies used were ERα (Cell Signaling Technologies Catalog #8644), and Tubulin (Sigma Catalog #T9026; St. Louis, MO). Detection reagents were Clarity Western ECL substrate (Bio-Rad Catalog #170-5060; Hercules, CA).
Alternatively, MCF7 cells were grown in DMEM/F12 with 10% FBS and seeded at 24,000 cells per well in 500 μl in 24-well clear tissue culture plates. The following day, the cells were treated with PROTACs in a 5-point concentration curve (100 nM, 33 nM, 11 nM, 3.7 nM, and 1.2 nM) in the presence of 0.01% DMSO. After 72 hours, the wells are aspirated and washed with 500 μl of PBS. The cells are lysed with 100 μl/well 4° C. Cell Lysis Buffer (Catalog #9803; Cell Signaling Technology, Danvers, MA) (20 mM Tris-HCL (pH 7.5), 150 mM NaCl, 1 mM Na2EDTA, 1 mM EGTA, 1% Triton, 2.5 mM sodium pyrophosphate, 1 mM B-glycerophosphate, 1 mM sodium vanadate, 1 ug/ml leupeptin). Lysates were clarified at 16,000×g for 10 minutes, and 2 μg of protein was subjected to SDS-PAGE analysis and followed by immunoblotting according to standard protocols. The antibodies used were ERα (Cell Signaling Technologies Catalog #8644), and Tubulin (Sigma Catalog #T9026; St. Louis, MO). Detection reagents were Clarity Western ECL substrate (Bio-Rad Catalog #170-5060; Hercules, CA).
3. Estrogen Receptor-Alpha (ERα) Degradation Assay Using In-Cell Western™ Assay for Table 5.
Degradation of ERα by claimed compounds were determined in MCF7 cells using an In-Cell Western™ assay. Briefly, MCF7 cells were plated in 96-well plates (2000 cells per well in 100 μl media) and incubated at 37° C. under an atmosphere of 5% CO2 in a humidified incubator overnight. One-hundred (100) μl of media containing test compound (at 2× concentration) was added to the appropriate wells to provide 11 serially decreasing concentrations (top final concentration, 1 μM then 3-fold less for the next 10 concentrations); a vehicle control (DMSO) was also added for each compound. For each experiment, all compounds were assayed in duplicate plates. Cells were then incubated for 3 or 5 days in the above-mentioned environment. The assay was terminated by removal of media, a single wash with ice-cold PBS and the addition of 50 μl paraformaldehyde (PFA: 4% in PBS). After 15 minutes in PFA at room temperature, the cells were permeabilized in Tris-phosphate-buffered saline with Tween (0.1%) (TBST) supplemented with Triton X-100 (0.5%) for 15 minutes. Cells were then blocked in BSA (TBST with BSA, 3%) for one hour. […]

[2] = tested on: estrogen responsive element/promoter/luciferase reporter gene; experiment: ERE Luciferase Assay in T47D-KBluc cells; type: cell-based, human; conditions: Homo sapiens, 24 hours, luciferase activity, read-out: Target Engagement IC50
Description: 1. ERE Luciferase Assay for Compounds in Table 5.
T47D-KBluc cells (ATCC® #CRL_2865, T47D human breast cancer cells stably transfected with estrogen responsive element/promoter/luciferase reporter gene) were seeded into 96-well white opaque plates in RPMI growth medium supplemented with 10% fetal bovine serum (FBS) and allowed to adhere overnight in a 37° C. humidified incubator. The following day, cells were treated with PROTACs in a 12-point concentration curve (top final concentration of 300 nM with subsequent concentrations being 3-fold less with 2 pM being the lowest concentration in the assay). Each PROTAC was tested independently in two experiments on 96-well plates. After 24 hours, media was removed and lysis buffer was added to the wells. Following lysis, Bright-Glo™ Luciferase Assay Substrate (Promega, Madison WI) was added and the luciferase activity was measured using a Cytation 3 plate reader (BioTek™, Winooski, VT). Each compound was assayed in duplicate and the activity was calculated as IC50 using GraphPad Prism software (San Diego, CA).

## COc1cc(N2CCN(CCCCCOc3ccc([C@H]4c5ccc(O)cc5CC[C@H]4c4ccccc4)cc3)CC2)cc2c1C(=O)N(C1CCC(=O)NC1=O)C2 (stereo partly drawn) [compound 1, 3-{5-[4-(5-{4-[(1S,2R)-6-hydroxy-2-phenyl-1,2,3,4-tetrahydronaphthalen-1-yl]phenoxy}pentyl)piperazin-1-yl]-7-methoxy-1-oxo-2,3-dihydro-1H-isoindol-2-yl}piperidine-2,6-dione]
[1]
  Dmax: 50 to 75%
  DC50: 10 to 100 nM
[2]
  IC50: 58.2 nM

## COc1cc(N2CCN(CCCCCOc3ccc([C@@H]4c5ccc(O)cc5CC[C@@H]4c4ccccc4)cc3)CC2)cc2c1C(=O)N(C1CCC(=O)NC1=O)C2 (stereo partly drawn) [compound 2, 3-(5-(4-(5-(4-((1R,2S)-6-hydroxy-2-phenyl-1,2,3,4-tetrahydronaphthalen-1-yl)phenoxy)pentyl)piperazin-1-yl)-7-methoxy-1-oxoisoindolin-2-yl)piperidine-2,6-dione]
[1]
  Dmax: ≥ 75%
  DC50: 1 to 10 nM
[2]
  IC50: 0.79 nM

## COc1c(N2CCN(CCCCCOc3ccc([C@@H]4c5ccc(O)cc5CC[C@@H]4c4ccccc4)cc3)CC2)ccc2c1CN(C1CCC(=O)NC1=O)C2=O (stereo partly drawn) [compound 3, 3-[5-[4-[5-[4-[(1R,2S)-6-hydroxy-2-phenyl-tetralin-1-yl]phenoxy]pentyl]piperazin-1-yl]-4-methoxy-1-oxo-isoindolin-2-yl]piperidine-2,6-dione]
[1]
  Dmax: ≥ 75%
  DC50: < 1 nM
[2]
  IC50: 1.35 nM

## COCCOCCOc1c(N2CCN(CCCCCOc3ccc([C@@H]4c5ccc(O)cc5CC[C@@H]4c4ccccc4)cc3)CC2)ccc2c1CN(C1CCC(=O)NC1=O)C2=O (stereo partly drawn) [compound 4, 3-[5-[4-[5-[4-[(1R,2S)-6-hydroxy-2-phenyl-tetralin-1-yl]phenoxy]pentyl]piperazin-1-yl]-4-[2-(2-methoxyethoxy)ethoxy]-1-oxo-isoindolin-2-yl]piperidine-2,6-dione]
[1]
  Dmax: ≥ 75%
  DC50: < 1 nM
[2]
  IC50: 1.42 nM

## COCCOCCOc1c(N2CCN(CC3CCN(c4ccc([C@H]5c6ccc(O)cc6CC[C@H]5c5ccccc5)cc4)CC3)CC2)ccc2c1CN(C1CCC(=O)NC1=O)C2=O (stereo partly drawn) [compound 5, 3-(5-{4-[(l-{4-[(1S,2R)-6-hydroxy-2-phenyl-1,2,3,4-tetrahydronaphthalen-1-yl]phenyl}piperidin-4-yl)methyl]piperazin-1-yl}-4-[2-(2-methoxyethoxy)ethoxy]-1-oxo-2,3-dihydro-1H-isoindol-2-yl)piperidine-2,6-dione]
[1]
  Dmax: < 50%
[2]
  IC50: > 300 nM

## COCCOCCOc1c(N2CCN(CC3CCN(c4ccc([C@@H]5c6ccc(O)cc6CC[C@@H]5c5ccccc5)cc4)CC3)CC2)ccc2c1CN(C1CCC(=O)NC1=O)C2=O (stereo partly drawn) [compound 6, 3-(5-{4-[(1-{4-[(1R,2S)-6-hydroxy-2-phenyl-1,2,3,4-tetrahydronaphthalen-l-yl]phenyl}piperidin-4-yl)methyl]piperazin-1-yl}-4-[2-(2-methoxyethoxy)ethoxy]-1-oxo-2,3-dihydro-1H-isoindol-2-yl)piperidine-2,6-dione]
[1]
  Dmax: < 50%
[2]
  IC50: 2.18 nM

## COCCOCCOc1c(CCN2CCCN(CCCCOc3ccc([C@H]4c5ccc(O)cc5CC[C@H]4c4ccccc4)cc3)CC2)ccc2c1CN([C@H]1CCC(=O)NC1=O)C2=O [compound 7, (3S)-3-(5-{2-[4-(4-{4-[(1S,2R)-6-hydroxy-2-phenyl-1,2,3,4-tetrahydronaphthalen-1-yl]phenoxy}butyl)-1,4-diazepan-1-yl]ethyl}-4-[2-(2-methoxyethoxy)ethoxy]-1-oxo-2,3-dihydro-1H-isoindol-2-yl)piperidine-2,6-dione]
[1]
  Dmax: 50 to 75%
  DC50: ≥ 100 nM
[2]
  IC50: 102 nM

## COCCOCCOc1c(CCN2CCCN(CCCCOc3ccc([C@@H]4c5ccc(O)cc5CC[C@@H]4c4ccccc4)cc3)CC2)ccc2c1CN([C@H]1CCC(=O)NC1=O)C2=O [compound 8, (3S)-3-[5-[2-[4-(4-[4-[(1R,2S)-6-hydroxy-2-phenyl-tetralin-1-yl]phenoxy]butyl]-1,4-diazepan-1-yl]ethyl]-4-[2-(2-methoxyethoxy)ethoxy]-1-oxo-isoindolin-2-yl]piperidine-2,6-dione]
[1]
  Dmax: 50 to 75%
  DC50: 1 to 10 nM
[2]
  IC50: 0.34 nM

## COc1cc(N2CCN(CCC3CCN(c4ccc([C@H]5c6ccc(O)cc6CC[C@H]5c5ccccc5)cc4)CC3)CC2)cc2c1C(=O)N(C1CCC(=O)NC1=O)C2 (stereo partly drawn) [compound 9, 3-(5-{4-[2-(1-{4-[(1S,2R)-6-hydroxy-2-phenyl-1,2,3,4-tetrahydronaphthalen-1-yl]phenyl}piperidin-4-yl)ethyl]piperazin-1-yl}-7-methoxy-1-oxo-2,3-dihydro-1H-isoindol-2-yl)piperidine-2,6-dione]
[1]
  Dmax: 50 to 75%
  DC50: ≥ 100 nM
[2]
  IC50: > 300 nM

## COc1cc(N2CCN(CCC3CCN(c4ccc([C@@H]5c6ccc(O)cc6CC[C@@H]5c5ccccc5)cc4)CC3)CC2)cc2c1C(=O)N(C1CCC(=O)NC1=O)C2 (stereo partly drawn) [compound 10, 3-[5-[4-[2-[1-[4-[(1R,2S)-6-hydroxy-2-phenyl-tetralin-1-yl]phenyl]-4-piperidyl]ethyl]piperazin-1-yl]-7-methoxy-1-oxo-isoindolin-2-yl]piperidine-2,6-dione]
[1]
  Dmax: ≥ 75%
  DC50: 1 to 10 nM
[2]
  IC50: 0.86 nM

## COc1cc(N2CCN(CC3CCN(c4ccc([C@H]5c6ccc(O)cc6CC[C@H]5c5ccccc5)cc4)CC3)CC2)cc2c1C(=O)N(C1CCC(=O)NC1=O)C2 (some centres unmarked) [compound 31]
[1]
  Dmax: < 50%
